This test relates to OCI-LY10 (PI3Kδ dependent) cells. Nature of the test: OCI-LY10 cell proliferation assay (MTS). It is filed as cell-based. To be noted: inhibition of OCI-LY10 cells proliferation, 72 h incubation, MTS readout at 490 nm. The protocol: MTS testing kit was purchased from Promega (Madison, WI, USA). The RPMI-1640, Fetal bovine serum and Penicillin-Streptomycin were purchased from BI (Biological Industries, Beit Haemek, Israel). Dimethyl sulfoxide (DMSO) was purchased from Sigma (St. Louis., MO, USA). OCI-LY10 cells were cultured in RPMI1640 supplemented with Penicillin-Streptomycin and 10% FBS.
To investigate whether a compound is able to inhibit the activity of PI3Kδ in cells, a mechanism-based assay using OCI-LY10 (PI3Kδ dependent) cells was developed. In this assay, inhibition of PI3Kδ was detected by the inhibition of OCI-LY10 cells proliferation. Cells were plated into 96-well plates at a density of 10000 cells/well. Plates were incubated at 37° C., with 5 % CO2 for 4 h. Compounds were serially diluted and added to the plates with the final compound concentrations as 10000, 3333.3, 1111.1, […], 123.5, 41.2, 13.7, 4.6 and 1.5 nM. Plates were incubated at 37° C., with 5 % CO2 for 72 h. 20 µl MTS was added into each well and the plates were incubated at 37° C., with 5 % CO2 for exactly 2 h. The absorbance was measured by a microplate reader at 490 nm. IC50 was calculated using GraphPad Prism 5.0 software.

Here are results for two molecules from patent publication US20230174556A1, “COMPOUNDS AS PROTEIN KINASE INHIBITORS” (Fochon Biosciences, Ltd., priority 2020, published 2023).

Molecules are shown by their SMILES.

On to `C[C@@H](c1cc2scc(Cl)n2c(=O)c1-c1ccccc1)n1nc(-c2ccc(OC3CC3)c(F)c2)c2c(N)ncnc21` [Example 13, (S)-7-(1-(4-amino-3-(4-cyclopropoxy-3-fluorophenyl)-1H-pyrazolo[3,4-d]pyrimidin-1-yl)ethyl)-3-chloro-6-phenyl-5H-thiazolo[3,2-a]pyridin-5-one], for which the IC50 (Homo sapiens, OCI-Ly10, 72 h) came out at 15 nM. `Cc1csc2cc([C@H](C)n3nc(-c4cnc(OC(C)C)c(C#N)c4)c4c(N)ncnc43)c(-c3cccc(F)c3)c(=O)n12` [Example 97, (S)-5-(4-amino-1-(1-(6-(3-fluoropheny 1)-3-methyl-5-oxo-5H-thiazolo[3,2-α]pyridin-7-yl)ethyl)-1H-pyrazolo[3,4-d]pyrimidin-3-yl)-2-isopropoxynicotinoni trile] showed an IC50 of 44 nM.

By IC50 is commonly meant the concentration that gives 50% inhibition.
